Test results from PMC7367925, “The EU-ToxRisk method documentation, data processing and chemical testing pipeline for the regulatory use of new approach methods” (Archives of Toxicology, 2020).

Tests used:
Estrogen receptor alpha = target: T1, Estrogen receptor alpha (Homo sapiens, UniProt P03372); assay: ERa-anti CALUX; format: cell-based; conditions: 24 h exposure, lowest effect level PC20, reference agonist at EC50, means from 3 assay runs
T1 construct: host or cells: U-2 OS
Procedure: (§1) After 24 h, exposure medium was prepared. […] All samples were tested in triplicates. […] Fig. SM_4. […] Fig. SM_4.
Cell line Endpoint effect Reference compound […]
ERa-anti CALUX Estrogen receptor antagonists PC20 tamoxifen […]
Cytotox CALUX Cytoxicity PC20 tributyltinacetate
(§2) Supplementary Material SM_4
(§3) Overview of CALUX assays.
(§4) This is defined as the concentration of test compound […]
(§5) for an antagonist assay is a PC20.
(§6) PC = positive control. FI = fold induction. PC10: concentration where test compound causes an activation equal to 10% of the maximum effect (positive control). PC20: concentration where test compound causes […]
(§7) FI=1.5: concentration where test
(§8) (A) exemplary graph of concentration- […]
(§9) receptor antagonism assay with PC20 as lowest-effect-level. (C) exemplary graph for assay with 1.5 fold inductionas lowest effect level. 9

Androgen receptor = target: T2, Androgen receptor (Homo sapiens, UniProt P10275); format: cell-based; conditions: 24 h exposure, lowest effect level PC20, reference agonist at EC50, means from 3 assay runs
T2 construct: host or cells: U-2 OS
T2 sequence (P10275 1-920): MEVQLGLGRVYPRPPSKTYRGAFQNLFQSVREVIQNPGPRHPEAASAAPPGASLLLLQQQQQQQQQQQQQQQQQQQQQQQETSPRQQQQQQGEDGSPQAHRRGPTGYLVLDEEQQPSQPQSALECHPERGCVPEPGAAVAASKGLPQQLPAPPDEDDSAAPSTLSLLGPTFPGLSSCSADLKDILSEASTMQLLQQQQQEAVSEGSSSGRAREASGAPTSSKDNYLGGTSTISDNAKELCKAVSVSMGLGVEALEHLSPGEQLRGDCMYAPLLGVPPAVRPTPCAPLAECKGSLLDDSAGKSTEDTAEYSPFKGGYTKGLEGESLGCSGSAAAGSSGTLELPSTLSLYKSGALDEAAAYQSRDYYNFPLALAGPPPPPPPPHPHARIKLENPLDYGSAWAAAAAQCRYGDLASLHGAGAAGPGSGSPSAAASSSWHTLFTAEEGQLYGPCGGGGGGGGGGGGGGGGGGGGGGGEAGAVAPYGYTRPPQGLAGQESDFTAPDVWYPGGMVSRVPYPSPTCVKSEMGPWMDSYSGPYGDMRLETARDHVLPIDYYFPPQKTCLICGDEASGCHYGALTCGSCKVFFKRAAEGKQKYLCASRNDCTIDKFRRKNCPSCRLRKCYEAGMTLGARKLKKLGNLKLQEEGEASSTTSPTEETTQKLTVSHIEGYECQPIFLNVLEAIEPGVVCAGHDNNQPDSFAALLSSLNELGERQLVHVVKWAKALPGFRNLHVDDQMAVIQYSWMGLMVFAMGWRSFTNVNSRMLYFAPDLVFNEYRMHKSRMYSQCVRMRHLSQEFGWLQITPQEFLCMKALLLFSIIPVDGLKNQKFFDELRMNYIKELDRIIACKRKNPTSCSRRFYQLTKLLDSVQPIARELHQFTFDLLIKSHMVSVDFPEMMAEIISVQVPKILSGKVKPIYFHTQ
Procedure: as §1, §2, §3, §4, §5, §6, §7, §8, §9

Progesterone receptor = target: T3, Progesterone receptor (Homo sapiens, UniProt P06401); assay: PR-anti CALUX; format: cell-based; conditions: 24 h exposure, lowest effect level PC20, reference agonist at EC50, means from 3 assay runs
T3 construct: host or cells: U-2 OS
T3 sequence (P06401 1-933): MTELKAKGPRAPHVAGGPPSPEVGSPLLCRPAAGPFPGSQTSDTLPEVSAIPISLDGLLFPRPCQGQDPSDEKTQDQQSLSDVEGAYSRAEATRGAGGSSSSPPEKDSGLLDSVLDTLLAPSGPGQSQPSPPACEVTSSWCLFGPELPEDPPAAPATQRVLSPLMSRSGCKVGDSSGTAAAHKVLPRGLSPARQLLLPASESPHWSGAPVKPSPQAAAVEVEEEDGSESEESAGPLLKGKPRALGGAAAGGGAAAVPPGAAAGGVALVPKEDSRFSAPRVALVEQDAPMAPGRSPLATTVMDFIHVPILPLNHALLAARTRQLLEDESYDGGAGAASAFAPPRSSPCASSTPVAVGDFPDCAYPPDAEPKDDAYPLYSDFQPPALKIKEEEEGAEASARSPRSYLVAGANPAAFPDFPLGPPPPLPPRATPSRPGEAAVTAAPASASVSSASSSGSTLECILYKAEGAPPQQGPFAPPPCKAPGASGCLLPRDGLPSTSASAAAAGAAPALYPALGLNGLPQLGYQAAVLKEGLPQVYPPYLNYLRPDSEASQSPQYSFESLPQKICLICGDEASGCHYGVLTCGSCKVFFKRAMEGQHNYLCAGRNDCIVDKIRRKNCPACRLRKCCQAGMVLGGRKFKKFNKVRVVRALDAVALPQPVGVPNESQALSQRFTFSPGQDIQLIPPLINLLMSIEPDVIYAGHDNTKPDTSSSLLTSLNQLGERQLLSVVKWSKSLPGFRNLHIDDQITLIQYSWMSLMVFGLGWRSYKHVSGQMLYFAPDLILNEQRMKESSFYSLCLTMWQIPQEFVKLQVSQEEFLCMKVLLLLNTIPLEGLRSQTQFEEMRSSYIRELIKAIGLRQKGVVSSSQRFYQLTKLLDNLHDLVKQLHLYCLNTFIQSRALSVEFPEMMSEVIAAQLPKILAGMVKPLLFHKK
Procedure: as §1, §2, §3, §4, §5, §6, §7, §8, §9

Pregnane X receptor = target: T4, Pregnane X receptor (Homo sapiens, UniProt O75469); assay: PXR CALUX; format: cell-based; conditions: 24 h exposure, lowest effect level PC10, means from 3 assay runs
T4 construct: host or cells: U-2 OS
T4 sequence (O75469 1-434): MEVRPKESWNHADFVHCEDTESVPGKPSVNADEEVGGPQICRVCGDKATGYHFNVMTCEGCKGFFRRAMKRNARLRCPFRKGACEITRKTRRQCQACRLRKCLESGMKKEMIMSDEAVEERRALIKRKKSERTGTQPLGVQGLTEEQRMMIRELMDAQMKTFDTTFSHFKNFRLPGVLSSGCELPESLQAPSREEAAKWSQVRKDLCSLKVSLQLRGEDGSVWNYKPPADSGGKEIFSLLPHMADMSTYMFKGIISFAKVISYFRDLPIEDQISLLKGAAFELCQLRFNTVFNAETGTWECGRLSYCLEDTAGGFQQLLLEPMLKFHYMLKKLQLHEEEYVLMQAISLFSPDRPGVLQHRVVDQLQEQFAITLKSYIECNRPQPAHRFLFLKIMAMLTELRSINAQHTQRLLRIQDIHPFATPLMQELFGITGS
Procedure: as §1, §2, §3, §4, §5, §6, §7, §8, §9

[1] = design: method as in Nyffeler et al. 2018; conditions: cell culture plastic; ref Nyffeler et al. 2018; cited from earlier work
[2] = tested on: U-2 OS reporter cell lines battery; assay: CALUX reporter gene assay battery as a whole; conditions: all CALUX assays, 13 concentrations, 24 h exposure

T1 sequence (P03372 whole entry): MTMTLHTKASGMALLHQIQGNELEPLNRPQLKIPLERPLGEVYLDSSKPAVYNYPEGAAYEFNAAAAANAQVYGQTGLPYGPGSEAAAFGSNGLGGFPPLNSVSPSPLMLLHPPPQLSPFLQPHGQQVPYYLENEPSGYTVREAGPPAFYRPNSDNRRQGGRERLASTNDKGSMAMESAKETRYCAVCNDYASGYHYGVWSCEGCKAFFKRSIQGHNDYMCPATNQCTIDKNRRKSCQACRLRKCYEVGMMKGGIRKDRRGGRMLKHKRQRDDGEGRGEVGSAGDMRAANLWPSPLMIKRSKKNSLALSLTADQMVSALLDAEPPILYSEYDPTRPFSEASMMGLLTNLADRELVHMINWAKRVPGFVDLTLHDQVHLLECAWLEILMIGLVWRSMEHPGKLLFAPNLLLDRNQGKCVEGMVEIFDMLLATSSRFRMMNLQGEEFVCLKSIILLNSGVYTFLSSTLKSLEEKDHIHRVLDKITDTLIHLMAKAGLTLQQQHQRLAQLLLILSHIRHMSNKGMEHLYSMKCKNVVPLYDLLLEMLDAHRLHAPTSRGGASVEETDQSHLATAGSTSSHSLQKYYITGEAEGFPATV

Clc1cc(Cl)c(-c2cc(Cl)c(Cl)c(Cl)c2Cl)cc1Cl [PCB180, polychlorinated biphenyl 180]
PoD Erα - anta (Estrogen receptor alpha): 6.0 -log(M)
PoD AR - anta (Androgen receptor): 6.1 -log(M)
PoD PR - anta (Progesterone receptor): 6.3 -log(M)
PoD PXR - ago (Pregnane X receptor): 5.5 -log(M)
fraction of the compound bound to plastic [1]: about one third
response profile over the CALUX battery (in words) [2]: only activated nuclear hormone receptor related assays
